Earlier results, collected in patent publication US12036313B2, “Personal lubricants comprising lambda-carrageenan” (LANVIRA, LLC, priority 2018, dated 2024).

Tested on: HPV
Conditions: in vitro and in vivo

## lambda-carrageenan
  Activity against HPV: active against HPV
